Here are results for 5 compounds from US20070190544A1, “Methods of screening for resistance to microtuble-targeting drugs” (Emory University, priority 2005, published 2007).

The subject of test [1] is 1A9 cells. Briefly: cells. The following applies: parental 1A9 cells, 72 hour exposure to the drug. Format: cell-based, human. Here is the method: (§1) The epothilone A resistant cell line, 1A9-A8, was selected from the human ovarian carcinoma 1A9 cells as described by Giannakakou et al. ((2000) Proc. Natl. Acad. Sci. USA 97:2904-2909). The 1A9-A8^E clone (expressing both wt and mutant alleles) was an intermediate isolate in the selection process of 1A9-A8 (mutant allele only) cells. These cells were cultured in RPMI 1640 medium (Cellgro, Herndon, Va.) supplemented with 10% fetal bovine serum (Invitrogen, Carlsbad, Calif.) and 1% Penicillin-Streptomycin (Cellgro), and grown as monolayers at 37° C. in a 5% CO2 tissue culture incubator. The mouse monoclonal anti-α-tubulin (DM1α) antibody used is from Sigma Chemical Co. (St. Louis, Mo.). Both epothilones A and B were a generous gift from the laboratory of K. C. Nicolaou (The Scripps Research Institute, La Jolla, Calif.). Paclitaxel (Taxol®) was purchased from Sigma Chemical Co. and vincristine from Eli-Lilly (Indianapolis, Ind.).
(§2) Cytotoxicity assays using the protein-staining sulforhodamine B (SRB) method were performed in 96-well plates, as described by Giannakakou et al. ((1997) J. Biol. Chem. 272:17118-17125).

Test [2] relates to 1A9-A8 cells. The test is described as follows: cells. Format: cell-based, human. The following applies: for IC50: 1A9-A8 cells, 72 hour exposure to the drug; for Relative Resistance (1A9-A8): ratio of IC50 against 1A9-A8 divided by IC50 against parental 1A9. The method, then:
as §1, §2

In test [3] the test system is 1A9-A8^E cells. Briefly: cells. Format: cell-based, human. The following applies: for IC50: 1A9-A8^E cells, 72 hour exposure to the drug; for resistance of early-step isolate 1A9-A8^E to the selecting agent: growth inhibition assays, versus parental 1A9; for Relative Resistance (1A9-A8^E): ratio of IC50 against 1A9-A8^E divided by IC50 against parental 1A9. Here is the method: as §1, §2

Test [4] deals with T1, tubulin (Homo sapiens, UniProt P07437).
T1 construct: endogenous in cells; host or cells: 1A9 human ovarian carcinoma cells
The test is described as follows: Cell-based tubulin polymerization assay, 1A9 cells. The method, then:
(§3) Drug-sensitive parental 1A9 (top panel) and the Epo A-resistant clones, 1A9/A8 and 1A9/A8E (lower panel), were treated for 5 hours with or without (0) various concentrations of Epo A as indicated. After cell lysis, the polymerized (P) and the soluble (S) protein fractions were separated by centrifugation, resolved by SDS/PAGE, and immunoblotted with an antibody against alpha-tubulin. The percent of polymerized tubulin (% P) was determined by dividing the densitometric value of polymerized tubulin by the total tubulin content (the sum of P plus S). The results shown are from a representative experiment of four independent observations.
(§4) In order to examine whether the tubulin gene status correlates with the ability of epothilone to induce tubulin polymerization in the three related cell lines (1A9, 1A9-A8, and 1A9-A8^E), cell-based tubulin polymerization assays were performed (FIG. 1). After treating the cells with escalating doses of Epo A, the cells were harvested in a low salt buffer and then centrifuged to separate the pellet fraction containing the polymerized form of tubulin, from the supernatant that contains the soluble form of tubulin. […]
(§5) Quantitation of the degree of in vivo tubulin polymerization in response to Epothilone A was performed as described by Giannakakou et al. ((1997) J. Biol. Chem. 272:17118-17125). […]

Test [5] deals with tubulin. The test is described as follows: Cell-based tubulin polymerization assay, 1A9-A8^E cells. Details: species or system human. The method, then: as §3, §4, §5
The target in test [6] is T2, tubulin (Homo sapiens, UniProt P07437, T274I).
T2 construct: endogenous in cells; host or cells: 1A9-A8 cells (late-step epothilone A-resistant clone of 1A9)
Briefly: Cell-based tubulin polymerization assay, 1A9-A8 cells. The method, then:
as §3, §4, §5

Test [7] deals with 1A9 cells. The test is described as follows: Mitotic index analysis, 1A9 cells. Format: cell-based, human. The following applies: 24 hr. The method, then: (§6) Cells were plated on glass coverslips and treated with drugs for 24 hours. Cells were fixed with ice-cold methanol and DNA was stained with Sytox Green (Molecular Probes, Eugene, Oreg.). Epifluorescence microscopy was used to count a minimum of 500 cells per drug treatment and mitotic figures were scored.

The subject of test [8] is 1A9-A8^E cells. Briefly: Mitotic index analysis, 1A9-A8^E cells. The following applies: 24 hr. Format: cell-based, human. The method, then:
as §6

Test [9] concerns 1A9-A8 cells. The test is described as follows: Mitotic index analysis, 1A9-A8 cells. Format: cell-based, human. The following applies: 24 hr. Here is the method:
as §6

Test [10] has as its system 1A9 cells. The test is described as follows: Cell cycle analysis by flow cytometry (G2/M arrest), 1A9 cells. Format: cell-based, human. The method, then: (§7) Cell cycle analysis by flow cytometry was performed in the parental 1A9 and the 1A9-Epo^R clones, following overnight treatment with Epo A or Vincristine (VCR) as indicated. […] 10,000 events were recorded for each condition, the histogram is representative of three independent experiments.
(§8) Cells were plated in 6-well plates. The following day, they were treated with various concentrations of epothilone A and vincristine for 18 hours. Following treatment, both adherent and floating cells were harvested and pelleted by centrifugation. Cell pellets were suspended in 1 ml of 0.1 mg/ml propidium iodide containing 0.6% NP40 (ICN Pharmaceuticals, Costa Mesa, Calif.) with 1 mg/ml RNase A (Sigma Chemical Co.), then incubated in the dark at room temperature for 30 minutes. Data acquisition and analysis were performed on a FACScan instrument equipped with CellQuest software (Becton Dickinson Immunocytometry Systems, Franklin Lakes, N.J.). Cell cycle analysis was performed with Flowjo (Treestar). All cell cycle experiments were performed at least three times.
On the technique in general: In flow cytometry, cells or beads pass a laser one at a time.

The subject of test [11] is 1A9-A8^E cells. The test is described as follows: Cell cycle analysis by flow cytometry (G2/M arrest), 1A9-A8^E cells. Format: cell-based, human. Here is the method: as §7, §8
In test [12] the test system is 1A9-A8 cells. Briefly: Cell cycle analysis by flow cytometry (G2/M arrest), 1A9-A8 cells. Format: cell-based, human. Here is the method:
as §7, §8

The test system of test [13] is human epidermoid carcinoma cell line. The following applies: Thr274Pro β-tubulin mutation; cited from earlier work.
For test [14], the system named is 1A9/B10 ovarian cancer cells. The following applies: βArg282Gln mutation, EpoB-selected 1A9/B10 cells; cited from earlier work.
The next test has as its system KB-3-1 epidermal cells. The following applies: Asp26Glu β-tubulin mutation; cited from earlier work.
Test [15] deals with human ovarian cancer clones. The following applies: two Taxol-selected ovarian clones, Phe270Val and Ala364Thr; cited from earlier work.
The subject of test [16] is human breast cancer cells. The following applies: Glu198Gly β-tubulin mutation; cited from earlier work.
In test [17] the test system is epothilone-resistant human ovarian cancer cell lines. The following applies: Thr274Ile and Arg282Gln epothilone-selected ovarian lines; cited from earlier work.
Test [18] deals with non-small cell lung cancer (NSCLC), Hela, and human leukemia cells. The following applies: Gln292Glu β-tubulin mutation; cited from earlier work.

Entries after “also recorded” stand apart in the source; their conditions may differ.

T1 sequence (P68363 whole entry): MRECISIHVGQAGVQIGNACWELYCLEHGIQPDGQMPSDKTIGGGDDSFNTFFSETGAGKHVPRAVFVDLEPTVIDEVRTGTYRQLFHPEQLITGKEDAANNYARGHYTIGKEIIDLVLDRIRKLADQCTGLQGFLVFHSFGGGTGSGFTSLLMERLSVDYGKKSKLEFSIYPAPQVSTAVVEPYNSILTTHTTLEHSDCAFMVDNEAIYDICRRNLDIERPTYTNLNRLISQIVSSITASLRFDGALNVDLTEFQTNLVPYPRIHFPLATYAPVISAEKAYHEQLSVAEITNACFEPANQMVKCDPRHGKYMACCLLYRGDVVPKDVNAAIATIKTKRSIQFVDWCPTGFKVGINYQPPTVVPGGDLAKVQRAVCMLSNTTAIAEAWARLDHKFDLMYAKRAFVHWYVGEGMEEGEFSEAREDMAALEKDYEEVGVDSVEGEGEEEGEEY
T1 sequence (P07437 whole entry): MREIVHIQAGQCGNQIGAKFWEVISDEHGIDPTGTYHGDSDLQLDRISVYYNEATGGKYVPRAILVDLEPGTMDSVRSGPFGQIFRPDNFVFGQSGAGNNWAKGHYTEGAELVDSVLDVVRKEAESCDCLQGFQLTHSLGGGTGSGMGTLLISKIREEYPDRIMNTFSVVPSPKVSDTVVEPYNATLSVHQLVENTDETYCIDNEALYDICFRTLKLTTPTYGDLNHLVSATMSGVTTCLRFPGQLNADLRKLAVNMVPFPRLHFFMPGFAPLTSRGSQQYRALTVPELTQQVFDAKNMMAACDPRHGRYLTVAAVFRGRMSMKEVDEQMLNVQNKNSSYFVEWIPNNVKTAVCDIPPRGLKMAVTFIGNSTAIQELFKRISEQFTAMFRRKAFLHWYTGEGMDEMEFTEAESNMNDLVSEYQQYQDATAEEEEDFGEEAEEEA
T2 sequence (P07437 whole entry T274I): as the sequence (P07437 whole entry) above, with T274I counted along it
T2 sequence (P68363 whole entry partner): as the sequence (P68363 whole entry) above

For orientation: IC50 means the midpoint of a concentration-inhibition curve. For the compound `C/C(=C\c1csc(C)n1)[C@@H]1C[C@@H]2O[C@@H]2CCC[C@H](C)[C@H](O)[C@@H](C)C(=O)C(C)(C)[C@@H](O)CC(=O)O1` [Epothilone A], the concentration for half-maximal inhibition (IC50) was 3.2 nM in the test on 1A9 cells [1], 125 nM with 1A9-A8 cells [2] and 32 nM in the test on 1A9-A8^E cells [3]. The “resistance of late-step 1A9-A8 clone to the selecting agent” value in the test with 1A9-A8 cells [2] (growth inhibition assays, versus parental 1A9) is recorded as 40 fold. Further, the “Relative Resistance (1A9-A8)” value in the test with 1A9-A8 cells [2] is recorded as 39. In addition, the “resistance of early-step isolate 1A9-A8^E to the selecting agent” value is 10 fold in the test on 1A9-A8^E cells [3] and “ten-fold” in the test with 1A9-A8^E cells [3] (listed as Epo A). Besides, the “Relative Resistance (1A9-A8^E)” value in the test on 1A9-A8^E cells [3] turned out to be 10. Moreover, the “effect on tubulin polymerization” value is reported as “dose-dependent increase in tubulin polymerization” on tubulin [4] (1A9 cells, escalating doses); “intermediate degree of tubulin polymerization” in the test with tubulin [5] (1A9-A8^E cells, escalating doses); “almost no effect on tubulin polymerization” on tubulin [6] (1A9-A8 cells, up to highest drug concentration (1500 nM)). The “percent of polymerized tubulin (% P)” value came to 90% on tubulin [4] (parental 1A9 cells, 150 nM); 70% with tubulin [5] (early-step 1A9-A8^E cells, 150 nM); 3% at tubulin [6] (late-step 1A9-A8 cells, 150 nM). The “Mitotic Index (%)” value in the test with 1A9 cells [7] (10 nM) turned out to be 82%; in the test with 1A9 cells [7] (100 nM) it was 96%; in the test on 1A9-A8^E cells [8] (10 nM) it was 39%; in the test with 1A9-A8^E cells [8] (100 nM), 47%; with 1A9-A8 cells [9] (10 nM), 2.7%; in the test on 1A9-A8 cells [9] (100 nM), 6.1%. In addition, the G2/M arrest entry in the test on 1A9 cells [10] (Epo A overnight treatment) is on record as “complete G2/M arrest”; in the test on 1A9-A8^E cells [11] (Epo A overnight treatment), “partially arrested in G2/M; also recorded: modest G2/M arrest”; with 1A9-A8 cells [12] (Epo A overnight treatment, even at the highest concentration), “failed to arrest in mitosis; also recorded: no change was observed in the cell cycle profile”. Moreover, the “fold resistance / cross-resistance” value in test [13] is reported as 45 fold; in test [14], 57-74 fold.

As to `C/C(=C\c1csc(C)n1)[C@@H]1C[C@@H]2O[C@]2(C)CCC[C@H](C)[C@H](O)[C@@H](C)C(=O)C(C)(C)[C@@H](O)CC(=O)O1` [Epothilone B], the half-inhibitory concentration (IC50) with 1A9 cells [1] is 0.9 nM; with 1A9-A8 cells [2], 29 nM; in the test with 1A9-A8^E cells [3], 8 nM. For the same compound, the “Relative Resistance (1A9-A8)” value in the test on 1A9-A8 cells [2] stood at 32. In the test on 1A9-A8^E cells [3], the “Relative Resistance (1A9-A8^E)” value is recorded as 9. For the same compound, the “fold resistance / cross-resistance” value is “minimal cross-resistance” in the test on KB-3-1 epidermal cells, 8 fold in test [13] and 24-53 fold in test [14].

With `CC(=O)O[C@H]1C(=O)[C@@]2(C)[C@H]([C@H](OC(=O)c3ccccc3)[C@]3(O)C[C@H](OC(=O)[C@H](O)[C@@H](NC(=O)c4ccccc4)c4ccccc4)C(C)=C1C3(C)C)[C@]1(OC(C)=O)CO[C@@H]1C[C@@H]2O` [Paclitaxel], the IC50 is 1.5 nM in the test with 1A9 cells [1] (Homo sapiens), 15 nM in the test on 1A9-A8 cells [2] (Homo sapiens) and 9 nM in the test on 1A9-A8^E cells [3] (Homo sapiens). Also, the “Relative Resistance (1A9-A8)” value in the test with 1A9-A8 cells [2] was determined as 10. The “Relative Resistance (1A9-A8^E)” value with 1A9-A8^E cells [3] is 6. Also, the “fold resistance (IC50 resistant line over IC50 parental line)” value in test [15] is given as 30 fold. Besides, the “fold resistance / cross resistance” value in [16] is given as 17 fold. Moreover, the “fold resistance / cross-resistance” value is reported as 18 fold in the test with KB-3-1 epidermal cells, 96 fold in test [13] and 22 fold in [18]. The cross-resistance in test [17] was 7-10 fold.

Regarding `CC(=O)O[C@@]12CO[C@@H]1C[C@H](O)[C@@]1(C)C(=O)[C@H](O)C3=C(C)[C@@H](OC(=O)[C@H](O)[C@@H](NC(=O)OC(C)(C)C)c4ccccc4)C[C@@](O)([C@@H](OC(=O)c4ccccc4)[C@H]21)C3(C)C` [Taxotere], the “fold resistance / cross resistance” value in test [16] was “some cross resistance”. For the same compound, the “fold resistance / cross-resistance” value is listed as 10 fold in the test with KB-3-1 epidermal cells and 13 fold in [18].

Regarding `CC[C@]1(O)C[C@H]2CN(CCc3c([nH]c4ccccc34)[C@@](C(=O)OC)(c3cc4c(cc3OC)N(C=O)[C@H]3[C@@](O)(C(=O)OC)[C@H](OC(C)=O)[C@]5(CC)C=CCN6CC[C@]43[C@@H]65)C2)C1` [Vincristine], the G2/M arrest result in the test on 1A9 cells [10] (10 nM) is “G2/M arrest”; with 1A9-A8^E cells [11] (10 nM), “arrested in G2/M”; in the test with 1A9-A8^E cells [11] (10 nM, listed as vincristine) it was “G2/M arrest”; in the test with 1A9-A8 cells [12] (10 nM), “arrested in G2/M”; with 1A9-A8 cells [12] (10 nM, listed as vincristine), “G2/M arrest”.
